From US11981686B2, “Urea compound having substituent” (DAIICHI SANKYO COMPANY, LIMITED, priority 2019, dated 2024)

The molecules below were run against SIRT6 enzyme (Homo sapiens, UniProt Q8N6T7) (assay: Measurement of deacetylation activity (SIRT6, AlphaLISA, H3K9(Ac) peptide)). Settings: SIRT6 25 ng/mL, H3K9(Ac) biotin peptide 2 nM, NAD 10 μM, room temperature 30 minutes, duplicate.
Type: biochemical
Experimental: The reaction was performed in duplicate using a white 384-well plate (3824, Corning or 6008350, PerkinElmer) at a final reaction liquid volume of 20.1 μL. As a control for calculating the enzyme activity, the enzyme-added (DMSO (+)) and enzyme-free (DMSO (−)) wells were set at n=8. Test substances (examples of final concentrations: 0.046, 0.14, 0.41, 1.2, 3.7, 11, 33, and 100 μM) at a concentration of 100 times or 0.1 μL of DMSO was dispensed into the plate and 5 μL of SIRT6 enzyme (prepared by Daiichi Sankyo RD Novare Co., Ltd., final concentration: 25 ng/mL) diluted with an assay buffer (10 mM Tris-HCl pH of 8.0, 0.1% BSA, 0.01% Tween 20, 1 mM DTT, 12.5% Glycerol) was added thereto. The enzymatic reaction was started by adding 5 μL of a mixed solution [Lys(Ac)9]-Histone H3 (1-21)-NH2, H3K9 (Ac), biotin-labeled, amide (AnaSpec, AS-64190, final concentration: 2 nM) and β-nicotinamide adenine dinucleotide (Sigma-Aldrich, N8285-15VL, final concentration: 10 μM), and the reaction was performed at room temperature for 30 minutes. 10 μL of a mixed solution of nicotinamide (Sigma-Aldrich, 72340-100G, final concentration: 100 mM) prepared with AlphaLISA Epigenetics Buffer (PerkinElmer, AL008C), AlphaLISA Anti-unmodified Histone H3 Lysine 9/Lysine 27 (H3K9/K27) Acceptor Beads (PerkinElmer, AL138, final concentration: 10 μg/mL), and AlphaScreen Streptavidin Donor beads (PerkinElmer, 6760002, final concentration: 5 μg/mL) was added thereto, the reaction was performed at room temperature for 60 minutes and then stopped, and acetylation was detected. The emission intensity was measured by EnVision (PerkinElmer).
The relative enzyme activity (%) of the test substance was calculated by the following equation. Relative enzyme activity (%)=[(emission intensity of test substance-added well−emission intensity of DMSO (−) well)/(emission intensity of DMSO (+) well−emission intensity of DMSO (−) well)]×100
The EC150 (the concentration of the compound showing a relative enzyme activity of 150%) of the test substance was calculated based on Sigmoidal dose-response (variable slope) of GraphPad Prism (GraphPad Software) using the value of the relative enzyme activity (%) at each concentration, and the results are listed in Tables 1-1 to 1-5.

Chain of SIRT6 enzyme (Q8N6T7 whole entry, species assumed): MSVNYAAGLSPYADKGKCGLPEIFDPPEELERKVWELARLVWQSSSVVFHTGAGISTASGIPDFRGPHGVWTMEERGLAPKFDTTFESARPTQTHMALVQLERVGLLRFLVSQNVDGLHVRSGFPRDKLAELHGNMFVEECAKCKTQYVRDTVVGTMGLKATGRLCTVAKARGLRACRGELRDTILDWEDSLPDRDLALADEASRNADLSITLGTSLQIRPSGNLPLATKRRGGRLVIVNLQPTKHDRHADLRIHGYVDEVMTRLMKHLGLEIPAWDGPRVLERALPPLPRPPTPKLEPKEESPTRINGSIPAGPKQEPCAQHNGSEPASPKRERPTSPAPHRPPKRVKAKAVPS

Structure (SMILES)	EC150 (the concentration of the compound showing a relative enzyme activity of 150%) [μm]
COc1cccc(-c2noc(N3CCc4nc(NC(=O)NC5CCOCC5)sc4C3)n2)c1 [Example 108, N-{5-[3-(3-methoxyphenyl)-1,2,4-oxadiazol-5-yl]-4,5,6,7-tetrahydro[1,3]thiazolo[5,4-c]pyridin-2-yl}-N′-oxan-4-ylurea]	2.4
CNC(=O)Nc1nc2c(s1)CN(c1nc(-c3cccc(OC(F)(F)F)c3)no1)CC2 [Example 8, N-methyl-N′-(5-{3-[3-(trifluoromethoxy)phenyl]-1,2,4-oxadiazol-5-yl}-4,5,6,7-tetrahydro[1,3]thiazolo[5,4-c]pyridin-2-yl)urea]	3.6
Cc1cc2nc(N3[C@@H]4COC[C@H]3c3sc(NC(=O)N[C@H](C)CO)nc3C4)oc2cc1C [Example 148, N-[(4S,8S)-10-(5,6-dimethyl-1,3-benzoxazol-2-yl)-4,7,8,9-tetrahydro-5H-4,8-epiminooxocino[5,4-d][1,3]thiazol-2-yl]-N′-[(2R)-1-hydroxypropan-2-yl]urea]	0.95
COc1ccc2oc(N3Cc4sc(NC(=O)NCC(C)(C)O)nc4CC3(C)C)nc2c1 [Example 190, N-(2-hydroxy-2-methylpropyl)-N′-[5-(5-methoxy-1,3-benzoxazol-2-yl)-6,6-dimethyl-4,5,6,7-tetrahydro[1,3]thiazolo[5,4-c]pyridin-2-yl]urea]	1.7
CC(C)(CO)NC(=O)Nc1nc2c(s1)[C@@H]1COC[C@H](C2)N1c1nc(-c2ccc(F)cc2)no1 [Example 90, N-{(4S,8S)-10-[3-(4-fluorophenyl)-1,2,4-oxadiazol-5-yl]-4,7,8,9-tetrahydro-5H-4,8-epiminooxocino[5,4-d][1,3]thiazol-2-yl}-N′-(1-hydroxy-2-methylpropan-2-yl)urea]	2.5
O=C(NCc1ccc[nH]c1=O)Nc1nc2c(s1)CN(c1nc(C3CCC(F)(F)CC3)no1)CC2 [Example 103, N-{5-[3-(4,4-difluorocyclohexyl)-1,2,4-oxadiazol-5-yl]-4,5,6,7-tetrahydro[1,3]thiazolo[5,4-c]pyridin-2-yl}-N′-[(2-oxo-1,2-dihydropyridin-3-yl)methyl]urea]	1.8
CNC(=O)Nc1nc2c(s1)C1CN(C(=O)OC)CC(C2)N1c1nnc(-c2cccc(C(=O)C3CC3)c2)o1 (stereo not drawn) [Example 123, Methyl 10-{5-[3-(cyclopropanecarbonyl)phenyl]-1,3,4-oxadiazol-2-yl}-2-[(methylcarbamoyl)amino]-4,7,8,9-tetrahydro-4,8-epimino[1,3]thiazolo[5,4-d]azocine-6(5H)-carboxylate]	0.66
O=C(NCC1(O)CCOCC1)Nc1nc2c(s1)[C@@H]1COC[C@H](C2)N1c1nc2cc(Cl)ccc2o1 [Example 150, N-[(4S,8S)-10-(5-chloro-1,3-benzoxazol-2-yl)-4,7,8,9-tetrahydro-5H-4,8-epiminooxocino[5,4-d][1,3]thiazol-2-yl]-N′-[(4-hydroxyoxan-4-yl)methyl]urea]	0.43
CNC(=O)Nc1nc2c(s1)[C@@H]1COC[C@H](C2)N1c1nnc(-c2cccc(C(C)C)c2)o1 [Example 119, N-methyl-N′-[(4S,8S)-10-{5-[3-(propan-2-yl)phenyl]-1,3,4-oxadiazol-2-yl}-4,7,8,9-tetrahydro-5H-4,8-epiminooxocino[5,4-d][1,3]thiazol-2-yl]urea]	2.2
[2H]C([2H])([2H])Oc1ccc2oc(N3[C@@H]4COC[C@H]3c3sc(NC(=O)N[C@H](C)CO)nc3C4)nc2c1 [Example 76, N-[(2R)-1-hydroxypropan-2-yl]-N′-[(4S,8S)-10-{5-[(^2H3)methyloxy]-1,3-benzoxazol-2-yl}-4,7,8,9-tetrahydro-5H-4,8-epiminooxocino[5,4-d][1,3]thiazol-2-yl]urea]	1.3
CC(=O)N1CC2Cc3nc(NC(=O)NC(C)C)sc3C(C1)N2c1nc(-c2ccc(F)cc2)no1 (stereo not drawn) [Example 137, N-{6-acetyl-10-[3-(4-fluorophenyl)-1,2,4-oxadiazol-5-yl]-4,5,6,7,8,9-hexahydro-4,8-epimino[1,3]thiazolo[5,4-d]azocin-2-yl}-N′-propan-2-ylurea]	0.36
CNC(=O)Nc1nc2c(s1)[C@@H]1COC[C@H](C2)N1c1nc(-c2ccc(F)cc2)co1 [Example 17, N-{(4S,8S)-10-[4-(4-fluorophenyl)-1,3-oxazol-2-yl]-4,7,8,9-tetrahydro-5H-4,8-epiminooxocino[5,4-d][1,3]thiazol-2-yl}-N′-methylurea]	1.8
O=C(Nc1nc2c(s1)[C@@H]1COC[C@H](C2)N1c1nc(-c2ccc(F)cc2)no1)N[C@H]1C[C@@H](O)C1 [Example 85, N-{10-[3-(4-fluorophenyl)-1,2,4-oxadiazol-5-yl]-4,7,8,9-tetrahydro-5H-4,8-epiminooxocino[5,4-d][1,3]thiazol-2-yl}-N′-[(1s,3s)-3-hydroxycyclobutyl]urea]	0.51
CNC(=O)Nc1nc2c(s1)CN(c1nnc(-c3ccc(F)c(C)c3)o1)CC2 [Example 9, N-{5-[5-(4-fluoro-3-methylphenyl)-1,3,4-oxadiazol-2-yl]-4,5,6,7-tetrahydro[1,3]thiazolo[5,4-c]pyridin-2-yl}-N′-methylurea]	1.2
O=C(Nc1nc2c(s1)[C@@H]1COC[C@H](C2)N1c1ncc(-c2cccc(C(F)F)c2)o1)N[C@H]1C[C@H](O)C1 [Example 166, N-(10-{5-[3-(difluoromethyl)phenyl]-1,3-oxazol-2-yl}-4,7,8,9-tetrahydro-5H-4,8-epiminooxocino[5,4-d][1,3]thiazol-2-yl)-N′-[(1r,3r)-3-hydroxycyclobutyl]urea]	0.21
CNC(=O)Nc1nc2c(s1)[C@@H]1COC[C@H](C2)N1c1nnc(-c2cccc(OC)c2)o1 [Example 120, N-{(4S,8S)-10-[5-(3-methoxyphenyl)-1,3,4-oxadiazol-2-yl]-4,7,8,9-tetrahydro-5H-4,8-epiminooxocino[5,4-d][1,3]thiazol-2-yl}-N′-methylurea]	2.4
CNC(=O)Nc1nc2c(s1)[C@@H]1COC[C@H](C2)N1c1nc(-c2ccc(F)cc2)no1 (single isomer, unassigned) [Example 13]	1.3
C[C@H](CO)NC(=O)Nc1nc2c(s1)CN(c1nc(C(C)(C)OCC(F)(F)F)no1)CC2 [Example 91, N-[(2R)-1-hydroxypropan-2-yl]-N′-(5-{3-[2-(2,2,2-trifluoroethoxy)propan-2-yl]-1,2,4-oxadiazol-5-yl}-4,5,6,7-tetrahydro[1,3]thiazolo[5,4-c]pyridin-2-yl)urea]	0.81
C[C@@H](O)CNC(=O)Nc1nc2c(s1)[C@@H]1COC[C@H](C2)N1c1ncc(-c2cccc(OC(F)F)c2)o1 [Example 171, N-[(4S,8S)-10-{5-[3-(difluoromethoxy)phenyl]-1,3-oxazol-2-yl}-4,7,8,9-tetrahydro-5H-4,8-epiminooxocino[5,4-d][1,3]thiazol-2-yl]-N′-[(2R)-2-hydroxypropyl]urea]	0.55
O=C(Nc1nc2c(s1)C1COCC(C2)N1c1nc(-c2ccc(F)cc2)no1)N[C@H]1C[C@H](CO)C1 (stereo partly drawn) [Example 84, N-{10-[3-(4-fluorophenyl)-1,2,4-oxadiazol-5-yl]-4,7,8,9-tetrahydro-5H-4,8-epiminooxocino[5,4-d][1,3]thiazol-2-yl}-N′-[(1r,3r)-3-(hydroxymethyl)cyclobutyl]urea]	0.62
O=C(Nc1nc2c(s1)CN(c1nc(C3CCC(F)(F)C3)no1)CC2)N[C@H]1C[C@H](O)C1 (stereo partly drawn) [Example 35, N-{5-[3-(3,3-difluorocyclopentyl)-1,2,4-oxadiazol-5-yl]-4,5,6,7-tetrahydro[1,3]thiazolo[5,4-c]pyridin-2-yl}-N′-[(1r,3r)-3-hydroxycyclobutyl]urea]	1
